Patent publication US11154566B2, “Composition for preventing hair loss or promoting hair growth” (CK BIOTECH, priority 2017, dated 2021)
≈ marks a conversion by molar mass, not a printed value.

Assay: Solubility of indirubin derivative in oils and surfactants (LC/MS/MS)
Type: physicochemical
Conditions: thermodynamic from solid, 72 hours at 37° C.
Experimental: To determine emulsion solution, solubility of indirubin derivative, embodiment 2 is measured in the several oil and surfactants. After enough amount of indirubin derivative powder made from manufacturing example 2 is putted into each oil or surfactants (1 ml), it was into vortexing 30 min. The equilibrium state was reached by shaking for 72 hours at 37° C. with 50 rpm speed in an incubator, then centrifuged at 16,100×g for 5 min. The supernatant was diluted with methanol and analyzed by LC/MS/MS. The kind of above oil or surfactants and measured solubility are shown below table 1.
‘Waters xevo TQ MS-ACQUITY UPLC System’ is used as an analyses equipment. ACQUITY UPLC® BEH (C18, 1.7 μm, 2.1×50 mm) column was used for analyses at room temperature. Mobile phase is used after filtration of deionized distilled water including 0.1% formic acid and acetonitrile including 0.1% formic acid (30:70, v/v) with […] membrane filter. The flow rate is 0.25 ml/min and it is analyzed by injection of 0.5 μl sample. There are LC/MS/MS conditions for Decursin analysis; Cone 38 V, Collison 32 V. Precursor ion and daughter ion are monitored 329 and 229 m/z, respectively.

## CO/N=C1/C(=C2/C(=O)Nc3cc(Cl)c(Cl)cc32)Nc2ccccc21 [Embodiment A3051, 5,6-dichloroindirubin-3′-methoxime]
Aqueous with cosolvent or surfactant or cyclodextrin, in Kolliphor EL
  solubility at 72 h: 5400 µg/mL (≈ 15 mM)
Aqueous with cosolvent or surfactant or cyclodextrin, in Tween 20
  solubility at 72 h: 4580 µg/mL (≈ 12.7 mM)
Aqueous with cosolvent or surfactant or cyclodextrin, in Tween 80
  solubility at 72 h: 4920 µg/mL (≈ 13.7 mM)
Oil or lipid, in Olive oil
  solubility at 72 h: 830 µg/mL (≈ 2.3 mM)
Oil or lipid, in Sunflower oil
  solubility at 72 h: 1350 µg/mL (≈ 3.75 mM)
Organic solvent or mixture, in PEG 400
  solubility at 72 h: 3100 µg/mL (≈ 8.61 mM)
Organic solvent or mixture, in Propylene glycol
  solubility at 72 h: 250 µg/mL (≈ 0.694 mM)
Organic solvent or mixture, in Transcutor P
  solubility at 72 h: 1150 µg/mL (≈ 3.19 mM)
